Data reported in the NIST ThermoML archive (doi:10.1021/je900665a).

Details: Capillary rise

CCOCC [diethyl ether]
Details	surface tension liquid-gas [mN/m]
258.17 K	21.49
263.17 K	20.76
268.18 K	20.13
273.18 K	19.62
278.18 K	18.97
283.18 K	18.46
288.18 K	17.82
293.16 K	17.15
298.1 K	16.58
303.17 K	16
308.11 K	15.44
313.19 K	14.87
318.16 K	14.14
323.16 K	13.61
328.12 K	12.96
333.18 K	12.46
338.17 K	11.92
343.17 K	11.28
348.17 K	10.75
353.19 K	10.19
358.18 K	9.575
363.16 K	9.014
368.18 K	8.459
373.17 K	7.914

CC(C)OC(C)C [diisopropyl ether]
Details	surface tension liquid-gas [mN/m]
248.07 K	22.7
253.23 K	22.06
258.1 K	21.55
263.18 K	21.02
268.33 K	20.52
273.46 K	19.93
278.5 K	19.26
283.18 K	18.81
288.18 K	18.3
293.16 K	17.82
298.1 K	17.26
303.17 K	16.76
308.08 K	16.18
313.27 K	15.66
318.17 K	15.09
323.19 K	14.58
328.12 K	14.1
333.12 K	13.68
338.11 K	13.15
343.1 K	12.57
348.1 K	12.11
353.1 K	11.57
358.15 K	11.01
363.17 K	10.56
368.17 K	10.04
373.17 K	9.698

CCCCCCC [heptane]
Details	surface tension liquid-gas [mN/m]
298.13 K	20
303.18 K	19.58
308.12 K	18.97
313.18 K	18.41
318.17 K	17.97
323.2 K	17.48
328.15 K	16.92
